Source: PMC8122087 (Cell, 2021)
Entries after “also recorded” stand apart in the source; their conditions may differ. Structures can show the parent of a compound that is named as a salt. Where two headings read alike, the source gives them in different places.

Key:
psychLight2 [1] = type: cell-based, mouse
[2] = target: psychLight2 (HEK293T cell line stably expressing psychLight2, PSYLI2) (Homo sapiens, UniProt P28223, DEL264-312/E264Q/I181A/I315S/INS316[…]/S314L); assay: PSYLI2 high-content imaging assay, agonist mode; type: cell-based
Sequence of psychLight2 (HEK293T cell line stably expressing psychLight2, PSYLI2) (P28223 1-471 with tags or gaps with the stated changes): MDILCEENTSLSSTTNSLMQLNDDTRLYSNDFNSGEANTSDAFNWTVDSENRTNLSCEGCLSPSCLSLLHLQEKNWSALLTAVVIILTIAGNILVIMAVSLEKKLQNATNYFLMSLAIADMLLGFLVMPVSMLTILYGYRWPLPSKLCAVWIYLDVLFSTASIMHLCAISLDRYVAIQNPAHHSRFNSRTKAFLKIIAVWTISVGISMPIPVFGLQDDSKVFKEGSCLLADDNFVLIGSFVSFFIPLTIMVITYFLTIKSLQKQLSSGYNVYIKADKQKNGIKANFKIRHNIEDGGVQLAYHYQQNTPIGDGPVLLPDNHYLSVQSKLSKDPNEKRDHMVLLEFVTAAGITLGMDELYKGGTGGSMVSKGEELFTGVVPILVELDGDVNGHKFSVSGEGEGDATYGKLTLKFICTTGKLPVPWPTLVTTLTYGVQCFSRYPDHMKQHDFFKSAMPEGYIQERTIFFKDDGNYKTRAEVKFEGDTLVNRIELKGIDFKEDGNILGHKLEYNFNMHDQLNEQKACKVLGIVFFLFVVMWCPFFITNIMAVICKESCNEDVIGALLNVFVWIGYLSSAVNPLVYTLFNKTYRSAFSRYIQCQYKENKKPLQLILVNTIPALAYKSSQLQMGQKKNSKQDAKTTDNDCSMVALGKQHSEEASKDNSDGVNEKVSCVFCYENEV

[3] = target: psychLight1 (human 5-HT2AR-based fluorescent sensor) (Homo sapiens, UniProt P28223, DEL264-312/E264Q/I181A/I315S/INS316[…]/S314L); type: cell-based
Sequence of psychLight1 (human 5-HT2AR-based fluorescent sensor) (P28223 1-471 with tags or gaps with the stated changes): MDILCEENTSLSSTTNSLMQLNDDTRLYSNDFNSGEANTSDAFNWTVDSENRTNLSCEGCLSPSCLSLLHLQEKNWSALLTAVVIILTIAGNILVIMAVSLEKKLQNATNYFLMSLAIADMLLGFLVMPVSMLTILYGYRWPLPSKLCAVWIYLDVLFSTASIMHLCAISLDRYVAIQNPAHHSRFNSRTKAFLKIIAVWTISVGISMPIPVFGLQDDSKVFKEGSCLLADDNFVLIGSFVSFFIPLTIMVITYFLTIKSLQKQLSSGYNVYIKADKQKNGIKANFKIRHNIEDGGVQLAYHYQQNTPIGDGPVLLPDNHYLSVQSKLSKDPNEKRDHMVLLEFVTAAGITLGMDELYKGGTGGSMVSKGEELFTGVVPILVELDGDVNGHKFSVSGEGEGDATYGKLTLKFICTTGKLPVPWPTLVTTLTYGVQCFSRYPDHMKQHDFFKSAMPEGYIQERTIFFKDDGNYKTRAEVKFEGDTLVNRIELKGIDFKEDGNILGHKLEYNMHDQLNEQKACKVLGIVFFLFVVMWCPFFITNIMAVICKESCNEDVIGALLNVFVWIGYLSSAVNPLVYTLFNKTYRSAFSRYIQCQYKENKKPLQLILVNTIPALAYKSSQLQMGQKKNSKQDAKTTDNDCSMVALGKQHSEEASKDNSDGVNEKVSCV

[4] = target: T1, psychLight2 (PSYLI2 cells) (Homo sapiens, UniProt P28223, DEL264-312/E264Q/I181A/I315S/INS316[…]/S314L); type: cell-based
head-twitch response = assay: Head-twitch response; type: in vivo, mouse
[5] = target: T1, psychLight2 (PSYLI2 cells); type: cell-based; remark: listed apart in the source
psychLight2 [6] = target: psychLight2 (Homo sapiens, UniProt P28223, DEL264-312/E264Q/I181A/I315S/INS316[…]/S314L); conditions: mouse
[7] = system: endogenous 5-HT release (psychLight2 response); set-up: species or system mouse; conditions: electrical stimulation, incubation with 50 μM
[8] = system: VMAT2 heterozygous (VMAT2-HET) and WT mice; assay: Sucrose preference test; type: in vivo, mouse; conditions: 15 mg/kg i.p., single administration
[9] = system: cultured rat embryonic cortical neurons; assay: Dendritogenesis in cultured rat embryonic cortical neurons; type: cell-based; conditions: Sholl analysis, Nmax
C57BL/6J mice = assay: Forced swim test; type: in vivo, mouse
locomotion = assay: Locomotion assay; type: in vivo, mouse; conditions: C57BL/6J mice, i.p., n = 4 mice
[10] = 10 μM compound treatment (Fig. 4C)
[11] = C57BL/6J mice, i.p., dose-response, n = 4 mice

For `CP(C)C.F[P-](F)(F)(F)(F)F.F[P-](F)(F)(F)(F)F.NCCc1c[nH]c2ccc(O)cc12.[Ru+2].c1ccc(-c2ccccn2)nc1.c1ccc(-c2ccccn2)nc1` [RuBi–5-HT], the Tauoff (psychLight2 [1]) was 5.4 ± 0.9 ms and the “peak ΔpL2/tdT normalized to baseline” value (psychLight2 [1]) was 111.2 ± 0.7%.
With `CN(C)CCc1c[nH]c2ccc(O)cc12` [BUFO, N,N-dimethylserotonin] the “PSYLI2 fluorescence ΔF/F” value [2, 10] was 22.3 ± 2.8%.
`CN(C)CCc1c[nH]c2ccccc12` [DMT, N,N-dimethyltrytamine] gave an Emax [3] of 12.4% and an EC50 ([3]; read-out: half maximal effective concentration (EC50)) of 627 nM.
For `NCCc1c[nH]c2ccc(O)cc12` [5-HT, serotonin], the ΔpL2/tdT (psychLight2 [1]) was 111.1 ± 1.8%, the “PSYLI2 fluorescence ΔF/F” value [2] was 46.3 ± 1.4% and the PSYLI2 response [2] was 44.8 ± 0.8%. For the same compound, the “psychLight2 fluorescence response (ΔF/F)” value [2] was 38.2 ± 2.4% and the “psychLight1 fluorescence response (ΔF/F)” value [3] was 77.3 ± 2.4%.
With `CN1CCc2cccc3c2[C@H]1Cc1ccc(O)c(O)c1-3` [apomorphine, R-(−)-apomorphine hydrochloride hemihydrate] the “Schild regression analysis (pA2)” value [4] was “potent psychLight competitive antagonists”.
For `COc1ccc2c(CCN(C)C)c[nH]c2c1` [6-MeO-DMT, 6-methoxy-N,N-dimethyltryptamine], the “psychLight2 fluorescence response (ΔF/F)” value ([2]; 10 μM, high content imager (Suppl. Fig. 3C)) was −3.0 ± 2.7%, the “competition with / block of 5-HT-induced activation of psychLight” value [3] was “can compete off 5-HT resulting in a reduction in psychLight fluorescence; also recorded: capable of binding to the receptor despite lacking efficacy” and the “psychLight1 fluorescence response (ΔF/F)” value ([3]; 10 μM, confocal microscope, n = 3) was −1.1 ± 4.6%.
`CN(C)CCc1c[nH]c2ccc(Cl)cc12` [5-Cl-DMT, 5-chloro-N,N-dimethyltryptamine] was tested, and the head-twitch response (head-twitch response; [11]) was “produced robust HTRs” and the ligand score [5] was “positive”.
With `COc1ccc2[nH]cc(CCN(C)C)c2c1` [5-MeO-DMT, 5-methoxy-N,N-dimethyltryptamine] the “psychLight2 fluorescence in vivo” value (psychLight2 [6]) was “sharp increase in fluorescence”, the “psychLight2 fluorescence response (ΔF/F)” value [2] was 24.1 ± 4.6% and the “head-twitch response during fiber photometry” value (head-twitch response; 50 mg/kg, i.p., within 1 min of administration, n = 3 animals) was “concomitant increase in HTR”. For the same compound, the Emax [3] was 48.4% and the “psychLight1 fluorescence response (ΔF/F)” value [3] was 48.4 ± 3.1%.
In the case of `CN(C)CCC[C@@]1(c2ccc(F)cc2)OCc2cc(C#N)ccc21` [escitalopram], the “amplitude of the psychLight2 response ΔF/F” value [7] is reported as 18.4 ± 4.3%.
With `COC(=O)[C@@H]1C[C@H](OC(C)=O)C(=O)[C@H]2[C@@]1(C)CC[C@H]1C(=O)O[C@H](c3ccoc3)C[C@]21C` [salvinorin A] the ligand score [5] was roughly 0.
In the case of `O=C(c1ccc(F)cc1)C1CCN(CCn2c(=O)[nH]c3ccccc3c2=O)CC1` [ketanserin], the “psychLight2 fluorescence in vivo” value (psychLight2 [6]) is reported as “decreased”, the PSYLI2 response [2] is reported as −12.7 ± 0.5% and the “psychLight2 fluorescence response (ΔF/F)” value [2] is reported as −3.5 ± 1.6%. The “competition with / block of 5-HT-induced activation of psychLight” value [3] was “able to block 5-HT-induced activation of psychLight”, the “effect on psychLight1 fluorescence” value [3] was “either had minimal effect on psychLight1 fluorescence or slightly quenched the sensor” and the “psychLight1 fluorescence response (ΔF/F)” value [3] was −1.7 ± 0.3%.
With `c1ccc(C2(N3CCCCC3)CCCCC2)cc1` [phencyclidine] the ligand score [5] was roughly 0.
With `CNCCc1c[nH]c2ccc(O)cc12` [N-5-HT, N-methylserotonin] the “PSYLI2 fluorescence ΔF/F” value [2, 10] was 24.6 ± 1.7%.
In the case of `CN(C)CCc1c[nH]c2ccc(F)cc12` [5-F-DMT, 5-flouo-N,N-dimethyltryptamine], the head-twitch response (head-twitch response; mouse, in vivo, ip) is reported as “produced robust HTRs” and the ligand score [5] is reported as “positive”.
With `NCCc1c[nH]c2ccccc12` [tryptamine] the “PSYLI2 fluorescence ΔF/F” value [2] was “produces a robust response”.
`COc1ccc2c(ccn2C[C@@H](C)N(C)C)c1` [AAZ-A-154] was tested, and the “sucrose preference in WT mice” value [8] was “did not modify sucrose preference in the WT animals”, the “sucrose preference in VMAT2-HET mice” value ([8]; 1% sucrose) was “exhibited a sucrose preference that was indistinguishable from WT controls” and the “persistence of anti-anhedonic effect” value ([8]; VMAT2-HET mice) was “at least 12 days”. For the same compound, the dendritic arbor complexity [9] was “increases dendritic arbor complexity to a comparable extent as the fast-acting antidepressant ketamine”, the head-twitch response (head-twitch response; [11]) was “failed to produce any head-twitches, even up to doses as high as 100 mg/kg” and the “immobility in the forced swim test” value (C57BL/6J mice; 20 mg/kg i.p., single administration, n = 12) was “decreased immobility”. The “onset and duration of antidepressant-like effects in FST” value (C57BL/6J mice; mouse, in vivo) was “both rapid (30 min) and long-lasting (1 week) antidepressant-like effects” and the locomotion (locomotion) was “only decreases locomotion at a very high dose (100 mg/kg)”.
With `CN(C)CCc1c[nH]c2ccc(Br)cc12` [5-Br-DMT, 5-bromo-N,N-dimethyltryptamine] the head-twitch response (head-twitch response; [11]) was “failed to induce HTRs at any dose” and the ligand score [5] was “negative”.
